PubChem BioAssay (NCI)
In brackets after ≈: the same amount, converted by molar mass.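 96-well plates; 48 h exposure; 5 concentrations. Endpoints by linear interpolation between flanking doses. Not reached: highest tested concentration assigned. At the GI50, growth is halved. The concentration for full growth arrest is given as TGI.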

Key:
Assay in all cases: DTP human tumour cell line panel, 48 h
MDA-MB-435 = tested on: MDA-MB-435
RPMI-8226 leukemia = tested on: RPMI-8226 leukemia
HS 578T breast = tested on: HS 578T breast
U251 CNS = tested on: U251 CNS
OVCAR-4 ovarian = tested on: OVCAR-4 ovarian
M14 melanoma = tested on: M14 melanoma
SN12C renal = tested on: SN12C renal
SNB-19 CNS = tested on: SNB-19 CNS
KM12 colon = tested on: KM12 colon
RXF 393 renal = tested on: RXF 393 renal

Row | Structure (SMILES) | TGI (MDA-MB-435) | TGI (RPMI-8226 leukemia) | TGI (HS 578T breast) | TGI (U251 CNS) | TGI (OVCAR-4 ovarian) | TGI (M14 melanoma) | TGI (SN12C renal) | TGI (SNB-19 CNS) | TGI (KM12 colon) | TGI (RXF 393 renal) | GI50 (MDA-MB-435) | GI50 (RPMI-8226 leukemia) | GI50 (RXF 393 renal) | GI50 (HS 578T breast) | GI50 (U251 CNS) | GI50 (OVCAR-4 ovarian) | GI50 (M14 melanoma) | GI50 (KM12 colon) | GI50 (SN12C renal) | GI50 (SNB-19 CNS)
1 | CCP(=O)(CC)C(Cl)Cl | > 100 µM | > 100 µM | > 100 µM | > 100 µM | > 100 µM | > 100 µM | > 100 µM | > 100 µM |  |  |  |  |  |  |  |  |  |  |  | 
2 | CC(=O)Nc1ccc(C(=O)NN2C(=O)C(Cl)/C2=C/c2ccco2)cc1 (stereo not drawn) |  | > 100 µM |  | > 100 µM |  |  |  | > 100 µM | > 100 µM |  |  |  |  |  |  |  |  |  |  | 
3 | O=C1CC2CC3OC3[C@H]3c4cc5c(cc4C(=O)N1C23)OCO5 (stereo partly drawn) |  | > 100 µM |  |  | > 100 µM | > 100 µM | > 100 µM | > 100 µM | > 100 µM |  |  |  |  |  |  |  |  |  |  | 
4 | COc1cc(C(C)O)c(S(=O)(=O)CC(C)O)nn1 (stereo not drawn) | > 100 µM | > 100 µM | > 100 µM |  | > 100 µM | > 100 µM | > 100 µM | > 100 µM | > 100 µM | > 100 µM |  |  |  |  |  |  |  |  |  | 
5 | CC(=O)c1c(C)nc(SSc2nc(C)c(C(C)=O)c(-c3ccc(Cl)cc3)c2C#N)c(C#N)c1-c1ccc(Cl)cc1 | > 150 µg/mL | > 150 µg/mL | 54.8 µg/mL | > 150 µg/mL | > 150 µg/mL | > 150 µg/mL | 15 µg/mL | > 150 µg/mL | > 150 µg/mL | 78.4 µg/mL | > 150 µg/mL | > 150 µg/mL | 22.5 µg/mL (≈ 37.2 µM) | 22.9 µg/mL (≈ 37.9 µM) | 53.6 µg/mL (≈ 88.8 µM) | 62.6 µg/mL (≈ 104 µM) | 81.5 µg/mL (≈ 135 µM) | 133 µg/mL | 15 µg/mL (≈ 24.9 µM) | 78.4 µg/mL (≈ 130 µM)
6 | O=C(N/N=C/c1cc(Cl)cc(Cl)c1[O-])c1ccccc1O.O=C(N/N=C/c1cc(Cl)cc(Cl)c1[O-])c1ccccc1O.[Co+2] |  |  |  | 3.73 µM | 7.07 µM | 2.95 µM |  |  | 19.1 µM | 8.46 µM |  |  |  |  |  |  |  | 0.963 µM |  | 
